Laboratory results taken from paper PMC6017121, “New Thiazoline-Tetralin Derivatives and Biological Activity Evaluation” (Molecules : A Journal of Synthetic Chemistry and Natural …, 2018).

Legend:
[1] = tested on: human lung carcinoma cell line (A549); assay: MTT cytotoxicity assay on A549; type: cell-based
Protocol: (§1) This is a colorimetric assay that measures the reduction of 3-(4,5-dimethylthiazol-2-yl)-2,4,diphenyltetrazolium bromide (MTT) by mitochondria. All final compounds were tested against human breast adenocarcinoma cell line (MCF-7), human lung carcinoma cell line (A549) and mouse embryooblast cell line (NIH/3T3) to determine their cytotoxic profile. Cancer cells were cultured in RPMI medium (Hyclone, Thermo Scientific, Waltham, MA, USA) at 37 °C in a humidified atmosphere of 95% air and 5% CO2. The studied cells were situated at 2 × 10^4 cells into each well of 96-well microtiter tissue culture plates (Nunc, Denmark) and incubated for 24 h. After that, test compounds were dissolved in DMSO and added to culture wells at varying concentrations (85–1000 µM). After a 24 h incubating period, […] MTT solution (5 mg/mL MTT powder in PBS) was added to each well and the cells were incubated for 4 h at 37 °C. The purple formazan crystals produced were dissolved in DMSO and the absorbance was read by ELISA reader (OD570 nm). The percent values of cell proliferations were calculated relative to controls, whose cell proliferations were accepted as 100% [47].

[2] = target: butyrylcholinesterase (BuChE) (Homo sapiens, UniProt P06276); assay: biochemical; conditions: 80 µg/mL (~160 µM)
butyrylcholinesterase (BuChE), sequence (P06276 29-602): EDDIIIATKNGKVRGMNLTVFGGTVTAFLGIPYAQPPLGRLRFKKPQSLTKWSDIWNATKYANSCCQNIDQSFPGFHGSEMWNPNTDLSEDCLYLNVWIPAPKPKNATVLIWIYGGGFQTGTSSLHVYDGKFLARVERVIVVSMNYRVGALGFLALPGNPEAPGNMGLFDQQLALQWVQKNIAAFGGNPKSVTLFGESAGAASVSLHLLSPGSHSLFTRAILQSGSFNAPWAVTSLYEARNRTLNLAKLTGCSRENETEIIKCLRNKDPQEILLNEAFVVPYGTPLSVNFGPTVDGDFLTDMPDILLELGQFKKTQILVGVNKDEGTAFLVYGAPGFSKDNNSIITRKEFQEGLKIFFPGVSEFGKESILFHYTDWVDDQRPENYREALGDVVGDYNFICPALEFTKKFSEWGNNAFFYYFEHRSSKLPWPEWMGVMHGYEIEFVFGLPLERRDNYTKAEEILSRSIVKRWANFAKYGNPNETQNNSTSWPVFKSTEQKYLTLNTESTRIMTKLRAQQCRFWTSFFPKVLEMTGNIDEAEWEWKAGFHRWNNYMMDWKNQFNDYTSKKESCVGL
Protocol: (§2) In order to determine the acetyl- and butyrylcholinesterase enzyme inhibitions, experiments were carried out by making some changes in the method developed by Ellman. Samples were prepared by dissolving in the appropriate solvent. Adding 20 μL enzyme solution (AChE or BuChE, 1 U/mL) and 10 μL sample solution to 2.4 mL buffer solution and it was incubated for 15 min at 37 °C. After incubation, 50 μL DTNB and 75 mM ATCI solution or 20 μL of 25 mM BTCI solution were added and allowed the mixture to incubate at room temperature for 30 min. For the control group, only 10 μL of solvent was added instead of the sample solution provided all protocols are the same. […] Experiments were run in triplicate. The inhibition fractions of AChE […] BuChE enzymes were calculated using the following equation:I(%) = 100 − ([…]) × 100

[3] = target: acetylcholinesterase (AChE) (Homo sapiens, UniProt P22303); assay: biochemical; conditions: 80 µg/mL (~160 µM)
acetylcholinesterase (AChE), sequence (P22303 32-614, species assumed): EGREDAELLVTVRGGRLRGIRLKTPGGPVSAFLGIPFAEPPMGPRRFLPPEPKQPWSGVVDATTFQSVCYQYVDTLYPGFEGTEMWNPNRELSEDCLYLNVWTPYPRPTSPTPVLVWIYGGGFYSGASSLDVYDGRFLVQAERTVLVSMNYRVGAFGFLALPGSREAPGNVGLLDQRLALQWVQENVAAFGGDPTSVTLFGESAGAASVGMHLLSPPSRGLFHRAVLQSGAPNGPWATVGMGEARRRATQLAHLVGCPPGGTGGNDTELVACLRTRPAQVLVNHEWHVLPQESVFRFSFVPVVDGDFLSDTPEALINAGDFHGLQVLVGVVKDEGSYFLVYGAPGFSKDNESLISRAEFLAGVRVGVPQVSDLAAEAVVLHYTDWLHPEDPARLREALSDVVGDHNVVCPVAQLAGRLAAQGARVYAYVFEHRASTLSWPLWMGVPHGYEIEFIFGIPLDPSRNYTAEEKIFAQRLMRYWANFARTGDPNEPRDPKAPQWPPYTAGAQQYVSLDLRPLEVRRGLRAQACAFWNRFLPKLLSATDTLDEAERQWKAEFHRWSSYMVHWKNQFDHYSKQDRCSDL
Protocol: as §2

[4] = tested on: mouse embryoblast cell line (NIH/3T3); assay: MTT cytotoxicity assay on NIH/3T3 (healthy cells); type: cell-based; conditions: NIH3T3, 24 h incubation
Protocol: as §1

[5] = tested on: A549 cells; assay: DNA synthesis inhibition (BrdU) on A549; conditions: Homo sapiens, A549, 4 h, read-out: DNA synthesis inhibition on A549 at IC50, IC50 concentration (4h 48.6 μM; cisplatin 108.3 μM)
Protocol: The 5-bromo-2′-deoxy-uridine (BrdU) cell proliferation assay [48] was used to detect the proliferation of A549 and C6 cells. […] At the end of each day, the cells were labelled with 10 mL BrdU solution for 2 h and then fixed. Anti-BrdU-POD (100 mL) was added and incubated for 90 min. Finally, microtiter plates were washed with phosphate buffered saline (PBS) three times and the cells were incubated with substrate solution until the color was sufficient for photometric detection. […] The growth percentage was evaluated spectrophotometrically versus untreated controls with used cell viability of growth assay. Results for each spectrophotometrical measure were noticed as percent of growth inhibition. All experiments were done in triplicates.
Mean percent absorbance of untreated control cells were assumed 0%. […] Data points represent means for three independent wells ± SD. p < 0.05.

[6] = tested on: A549 cells; assay: Annexin V-FITC/propidium iodide flow cytometry on A549; type: cell-based, human; conditions: A549 cell line, IC50 concentration
Protocol: Evaluation of apoptosis was carried out through the Annexin V-FITC Apoptosis Detection Kit from BD, Pharmingen, according to the manufacturer’s instruction. […] Then cells were rinsed with cold water twice and resuspended in Annexin V-FITC binding buffer at a concentration of 1 × 10^6 cells/mL. […] of Annexin V-FITC was used to stain the cells. After 15 min of incubation at 25 °C, the cell suspension was centrifugated for 5 min and cells were resuspended in Annexin V-FITC binding buffer. Propidium iodide ([…]) was added and the tubes were situated on ice and away from light. The fluorescence was measured using a flow cytometer. The results were analyzed by using FCSExpress software and represented as percentage of normal and apoptotic cells at various stages. […] The four areas in the diagrams stand for necrotic cells (Q1, positive for PI and negative for annexin/FITC, left square on the top), live cells (Q3, negative for annexin and PI, left square at the bottom), late apoptotic or necrotic cells (Q2, positive for annexin and PI, right square on the top) and apoptotic cells (Q4, negative for PI and positive for annexin, right square at the bottom), respectively. The experiment was repeated three times.

[7] = tested on: human breast adenocarcinoma cell line (MCF-7); assay: MTT cytotoxicity assay on MCF-7; type: cell-based
Protocol: as §1

SMILES: O=C(COc1ccc2c(c1)CCCC2)N/N=c1\scc(-c2ccc(F)cc2)n1-c1ccccc1 [Compound 4h, N′-[3-Phenyl-4-(4-florophenyl)thiazole-2(3H)-ylidene]-2-[(5,6,7,8-tetrahydronaphthalen-2-yl)oxy]acetohydrazide]
- IC50 ([1]; Homo sapiens, A549, MTT, 24 h incubation): 48.6 ± 6 µM
- SI A549 (selectivity index) ([1]; NIH/3T3 versus A549): 5.1
- inhibition at 80 µg/mL [2]: < 0%
- inhibition at 160 µM [3]: 49.9 ± 1.44%
- IC50 [4]: 247 ± 12.2 µM
- inhibition at 48.6 µM [5]: 50.8%
- apoptosis (early + late apoptotic cell percentage) A549 [6]: over 50%
- % Early Apoptotic ([6]; 24 h): 23.7%
- % Late Apoptotic ([6]; 24 h): 26.4%
- % Necrotic ([6]; 24 h): 4.0%
- % Viable ([6]; 24 h): 45.9%
- IC50 ([7]; Homo sapiens, MCF7, MTT, 24 h incubation): 243 ± 14.9 µM
- SI MCF-7 (selectivity index) ([7]; NIH/3T3 versus MCF-7): 1.0
